Measurements reported in patent US20230278972A1, “SUBSTITUTED HALOALKYL SULFONANILIDE HERBICIDES” (FMC Corporation, priority 2020, published 2023).

Tests used:
Type in all cases: in vivo
[1] = test system: Oat, Wild (wild oat, Avena fatua); assay: Test A1 preemergence, Oat, Wild
How it was run: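 Plants grown in pots of loam/sand mix; preemergence = soil-directed spray on seeded pots, postemergence = spray at 1–2 leaves, height 2–10 cm; test chemicals formulated in non-phytotoxic solvent with surfactant.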

[2] = test system: kochia (Bassia scoparia); assay: Test A1 postemergence, kochia; details: for Kochia plant response rating: 31 g ai/ha, postemergence; for Plant response rating, Kochia: Postemergence, 125 g ai/ha
How it was run: (§1)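 Test compounds were formulated in a non-phytotoxic solvent mixture containing a surfactant. For preemergence, seeds sown in a loam soil–sand blend received a directed soil spray. For postemergence, potted plants in the same soil, 2 to 10 cm tall at the one- to two-leaf stage, were sprayed.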

[3] = test system: barnyardgrass (Echinochloa crus-galli); assay: Test B1 flooded paddy test, barnyardgrass; details: 250 g ai/ha, Flood, applied to paddy water, 2-leaf stage, visually evaluated after 10 to 14 days
Source text: A dash (-) response means no test result.

[4] = test system: galium (catchweed bedstraw, Galium aparine); assay: Test A1 postemergence, galium; details: for Galium plant response rating: 31 g ai/ha, postemergence; for Plant response rating, Galium: Postemergence, 125 g ai/ha
How it was run: as §1

[5] = test system: horseweed (Erigeron canadensis); assay: Test A1 postemergence, horseweed; details: for Horseweed plant response rating: 31 g ai/ha, postemergence; for Plant response rating, Horseweed: Postemergence, 125 g ai/ha
How it was run: as §1

[6] = test system: blackgrass (Alopecurus myosuroides); assay: Test A1 postemergence, blackgrass; details: 0 to 100 scale (0 no effect, 100 complete control); for Blackgrass plant response rating: postemergence; for Plant response rating, Blackgrass: Postemergence
How it was run: as §1

[7] = 31 g ai/ha, 0 to 100 scale (0 no effect, 100 complete control)
[8] = 125 g ai/ha, 0 to 100 scale, 0 no effect, 100 complete control
[9] = 0 to 100 scale (0 no effect, 100 complete control)
[10] = 0 to 100 scale (0 no effect, 100 complete control), 10 days
[11] = 125 g ai/ha, 0 to 100 scale (0 no effect, 100 complete control)

In the case of `Cc1cc(C)c(N2CCC3(CCC(C)CC3)C2=O)cc1NS(=O)(=O)C(F)(F)F` (stereo not shown) [Compound 402], the “Plant response rating, Oat, Wild” value [1, 7] was 50, the “Plant response rating, Oat, Wild” value [1, 8] was 70 and the “Kochia plant response rating” value [2, 9] was 10. The “Plant response rating, Kochia” value [2, 10] was 50, the “Plant response rating, Barnyardgrass (0 to 100 scale, 0 is no effect, 100 is complete control)” value [3] was 0 and the “Galium plant response rating” value [4, 9] was 70. The “Plant response rating, Galium” value [4, 10] was 90, the “Horseweed plant response rating” value [5, 9] was 20 and the “Plant response rating, Horseweed” value [5, 10] was 50. The “Blackgrass plant response rating” value ([6]; 31 g ai/ha) was 0 and the “Plant response rating, Blackgrass” value ([6]; 125 g ai/ha, 10 days) was 0.
With `CCOC(=O)N(c1cc(C(=O)N2C[C@@H](C)O[C@H](C)C2)c(C)c(C)c1C)S(=O)(=O)C(F)(F)F` (relative stereo) [Compound 374] the “Plant response rating, Oat, Wild” value [1, 7] was 0, the “Plant response rating, Oat, Wild” value [1, 8] was 30 and the “Kochia plant response rating” value [2, 9] was 0. For the same compound, the “Plant response rating, Kochia” value ([2]; 0 to 100 scale) was 10, the “Plant response rating, Barnyardgrass (0 to 100 scale, 0 is no effect, 100 is complete control)” value [3] was 40 and the “Galium plant response rating” value [4, 9] was 60. For the same compound, the “Plant response rating, Galium” value ([4]; 0 to 100 scale) was 80, the “Plant response rating, Blackgrass” value ([6]; 31 g ai/ha, 10 days) was 0 and the “Plant response rating, Blackgrass” value ([6]; 125 g ai/ha) was 10.
In the case of `Cc1cc(C)c(N2CC3(CCCCC3)CC2=O)cc1NS(=O)(=O)C(F)(F)F` [Compound 392], the “Plant response rating, Oat, Wild” value [1, 7] was 20, the “Plant response rating, Oat, Wild” value [1, 8] was 60 and the “Kochia plant response rating” value [2, 9] was 10. The “Plant response rating, Kochia” value [2, 10] was 20, the “Plant response rating, Barnyardgrass (0 to 100 scale, 0 is no effect, 100 is complete control)” value [3] was 0 and the “Galium plant response rating” value [4, 9] was 50. The “Plant response rating, Galium” value [4, 10] was 80, the “Horseweed plant response rating” value [5, 9] was 0 and the “Plant response rating, Horseweed” value [5, 10] was 20. For the same compound, the “Blackgrass plant response rating” value ([6]; 31 g ai/ha) was 0 and the “Plant response rating, Blackgrass” value ([6]; 125 g ai/ha, 10 days) was 0.
In the case of `CCc1cc(C)c(N(COC(=O)C(C)(C)C)S(=O)(=O)C(F)(F)F)cc1C1=NOC2CCCC12` (stereo not shown) [Compound 378], the “Plant response rating, Oat, Wild” value [1, 7] was 10, the “Plant response rating, Oat, Wild” value [1, 8] was 40 and the “Kochia plant response rating” value [2, 9] was 0. The “Plant response rating, Kochia” value ([2]; 0 to 100 scale) was 60, the “Plant response rating, Barnyardgrass (0 to 100 scale, 0 is no effect, 100 is complete control)” value [3] was 95 and the “Galium plant response rating” value [4, 9] was 20. For the same compound, the “Plant response rating, Galium” value ([4]; 0 to 100 scale) was 40, the “Horseweed plant response rating” value [5, 9] was 0 and the “Plant response rating, Horseweed” value ([5]; 0 to 100 scale) was 90. The “Plant response rating, Blackgrass” value ([6]; 31 g ai/ha, 10 days) was 0 and the “Plant response rating, Blackgrass” value ([6]; 125 g ai/ha) was 30.
`Cc1cc(Cl)c(NS(=O)(=O)C(F)(F)F)cc1N1CC2(CCCCC2)OC1=O` [Compound 394] was tested, and the “Plant response rating, Oat, Wild” value [1, 7] was 20, the “Plant response rating, Oat, Wild” value [1, 8] was 90 and the “Kochia plant response rating” value [2, 9] was 40. For the same compound, the “Plant response rating, Kochia” value [2, 10] was 80, the “Plant response rating, Barnyardgrass (0 to 100 scale, 0 is no effect, 100 is complete control)” value [3] was 0 and the “Galium plant response rating” value [4, 9] was 100. The “Plant response rating, Galium” value [4, 10] was 100, the “Horseweed plant response rating” value [5, 9] was 30 and the “Plant response rating, Horseweed” value [5, 10] was 80.
With `Cc1cc(C)c(C2=NOC(C(C)C)C2)cc1NS(=O)(=O)C(F)(F)F` (stereo not shown) [Compound 381] the “Plant response rating, Oat, Wild” value [1, 7] was 50, the “Plant response rating, Oat, Wild” value [1, 8] was 80 and the “Kochia plant response rating” value [2, 9] was 0. The “Plant response rating, Kochia” value [2, 10] was 20, the “Plant response rating, Barnyardgrass (0 to 100 scale, 0 is no effect, 100 is complete control)” value [3] was 70 and the “Galium plant response rating” value [4, 9] was 0. For the same compound, the “Plant response rating, Galium” value [4, 10] was 50, the “Horseweed plant response rating” value [5, 9] was 0 and the “Plant response rating, Horseweed” value [5, 10] was 30. The “Blackgrass plant response rating” value ([6]; 31 g ai/ha) was 0 and the “Plant response rating, Blackgrass” value ([6]; 125 g ai/ha, 10 days) was 70.
In the case of `Cc1cc(C)c(N2Cc3cccc(C)c3C2=O)cc1NS(=O)(=O)Cl` [Compound 408], the “Plant response rating, Oat, Wild” value [1, 11] was 100, the “Kochia plant response rating” value [2, 9] was 60 and the “Plant response rating, Kochia” value [2, 10] was 60. For the same compound, the “Plant response rating, Barnyardgrass (0 to 100 scale, 0 is no effect, 100 is complete control)” value [3] was 98, the “Galium plant response rating” value [4, 9] was 90 and the “Plant response rating, Galium” value [4, 10] was 100. The “Horseweed plant response rating” value [5, 9] was 20, the “Plant response rating, Horseweed” value [5, 10] was 70 and the “Blackgrass plant response rating” value ([6]; 31 g ai/ha) was 80. The “Plant response rating, Blackgrass” value ([6]; 125 g ai/ha, 10 days) was 90.
With `Cc1cc(C)c(C2=NOC3OCCCC23)cc1NS(=O)(=O)C(F)(F)F` (stereo not shown) [Compound 372] the “Plant response rating, Oat, Wild” value [1, 7] was 0, the “Plant response rating, Oat, Wild” value [1, 8] was 20 and the “Kochia plant response rating” value [2, 9] was 0. The “Plant response rating, Kochia” value ([2]; 0 to 100 scale) was 0, the “Plant response rating, Barnyardgrass (0 to 100 scale, 0 is no effect, 100 is complete control)” value [3] was 20 and the “Galium plant response rating” value [4, 9] was 60. For the same compound, the “Plant response rating, Galium” value ([4]; 0 to 100 scale) was 80, the “Horseweed plant response rating” value [5, 9] was 0 and the “Plant response rating, Blackgrass” value ([6]; 31 g ai/ha, 10 days) was 0. The “Plant response rating, Blackgrass” value ([6]; 125 g ai/ha) was 30.
`CCOc1cccc2c1C(=O)N(c1cc(N(COC(=O)C(C)(C)C)S(=O)(=O)Cl)c(C)cc1C)C2` [Compound 414] was tested, and the “Plant response rating, Oat, Wild” value [1, 11] was 30, the “Kochia plant response rating” value [2, 9] was 1 and the “Plant response rating, Kochia” value [2, 10] was 50. For the same compound, the “Plant response rating, Barnyardgrass (0 to 100 scale, 0 is no effect, 100 is complete control)” value [3] was 0, the “Galium plant response rating” value [4, 9] was 60 and the “Plant response rating, Galium” value [4, 10] was 70. For the same compound, the “Horseweed plant response rating” value [5, 9] was 0, the “Plant response rating, Horseweed” value [5, 10] was 70 and the “Blackgrass plant response rating” value ([6]; 31 g ai/ha) was 0. The “Plant response rating, Blackgrass” value ([6]; 125 g ai/ha, 10 days) was 30.
For `Cc1cc(C)c(N(COC(=O)C(C)(C)C)S(=O)(=O)C(F)(F)F)cc1N1CCC2(CCC(C(F)(F)F)CC2)C1=O` (stereo not shown) [Compound 403], the “Plant response rating, Oat, Wild” value [1, 7] was 0, the “Plant response rating, Oat, Wild” value [1, 8] was 10 and the “Kochia plant response rating” value [2, 9] was 10. The “Plant response rating, Kochia” value [2, 10] was 40, the “Plant response rating, Barnyardgrass (0 to 100 scale, 0 is no effect, 100 is complete control)” value [3] was 0 and the “Galium plant response rating” value [4, 9] was 70. The “Plant response rating, Galium” value [4, 10] was 100, the “Horseweed plant response rating” value [5, 9] was 0 and the “Plant response rating, Horseweed” value [5, 10] was 30. The “Blackgrass plant response rating” value ([6]; 31 g ai/ha) was 0 and the “Plant response rating, Blackgrass” value ([6]; 125 g ai/ha, 10 days) was 0.
